Experimental data taken from patent US10576097B2, “URLC10-derived peptide and vaccine containing same” (ONCOTHERAPY SCIENCE, INC., priority 2014, dated 2020).

Tests used:
[1] = system: peptide-pulsed C1R-A11; assay: In vitro CTL induction, IFN-gamma ELISPOT assay (HLA-A*1101); type: cell-based, human; settings: CTLs induced from HLA-A*1101-positive donors, against peptide-pulsed C1R-A11, compared with control
Source text: (§1) Monocyte-derived dendritic cells (DCs) were used as the antigen-presenting cell to induce a cytotoxic T lymphocyte (CTL) response against peptides presented on human leukocyte antigens (HLAs). As described in the other sections, DCs were generated in vitro (Nakahara S et al., Cancer Res 2003, 63(14): 4112-8). Specifically, peripheral-blood mononuclear cells isolated from healthy volunteers (HLA-A*1101-positive) with the Ficoll-Paque plus solution (Pharmacia) were separated by attaching to plastic tissue culture dishes (Becton Dickinson) and concentrated as a monocyte fraction. The monocyte-concentrated population was cultured in the presence of 1000 IU/ml granulocyte macrophage colony-stimulating factor (R&D System) and 1000 IU/ml interleukin(IL)-4 (R&D System) in an AIM-V medium (Invitrogen) containing 2% heat-inactivated autologous serum (AS). After seven days of culturing, the cytokine-induced DCs were pulsed with 20 micro-g/ml each of the synthesized peptides in an AIM-V medium at 37 degrees C. for three hours in the presence of 3 micro-g/ml beta 2-microglobulin. The generated cells appeared to express on their cell surface DC-associated molecules such as CD80, CD83, CD86 and HLA class II (data not shown). Next, these peptide-pulsed DCs were inactivated by X-ray irradiation (20 Gy), and mixed in a 1:20 ratio with autologous CD8^+ T cells obtained by positive selection using the CD8 Positive Isolation Kit (Dynal). These culture products were seeded in a 48-well plate (Corning). Each well was made to contain 1.5×10^4 peptide-pulsed DCs, 3×10^5 CD8^+ T cells and 10 ng/ml IL-7 (R&D System) in 0.5 ml of the AIM-V/2% AS medium. Three days later, these culture products were added with a final concentration of 20 IU/ml IL-2 (CHIRON). On day 7 and day 14, T cells were further stimulated with peptide-pulsed autologous DCs. The DCs were prepared every time by the same method as above. On day 21, after the third peptide stimulation, CTLs were examined against the peptide-pulsed C1R-A11 by a human interferon (IFN)-gamma enzyme-linked immunospot (ELISPOT) assay (Tanaka H et al., Br J Cancer 2001, 84(1): 94-9; Umano Y et al., Br J Cancer 2001, 84(8): 1052-7; Uchida N et al., Clin Cancer Res 2004, 10(24): 8577-86; Suda T et al., Cancer Sci 2006, 97(5): 411-9; Watanabe T et al., Cancer Sci 2005, 96(8): 498-506).
To examine specific CTL activity, an IFN-gamma ELISPOT assay and an IFN-gamma enzyme-linked immunosorbent assay (ELISA) were performed. Specifically, peptide-pulsed C1R-A11 (1×10^4 cells/well) was prepared as the stimulator cell. The induced CTLs, i.e., CTL lines and CTL clones, were used as the responder cell. The IFN-gamma ELISPOT assay and IFN-gamma ELISA were performed according to the manufacturer's manual.

[2] = system: peptide-pulsed C1R-A03; assay: In vitro CTL induction, IFN-gamma ELISPOT assay (HLA-A*0301); type: cell-based, human; settings: CTLs induced from HLA-A*0301-positive donors, against peptide-pulsed C1R-A03, compared with control
Source text: as §1, with “(HLA-A*0301-positive)” for “(HLA-A*1101-positive)”, “C1R-A03” for “C1R-A11”
(§2) To examine specific CTL activity, an IFN-gamma ELISPOT assay and an IFN-gamma enzyme-linked immunosorbent assay (ELISA) were performed. Specifically, peptide-pulsed C1R-A03 (1×10^4 cells/well) was prepared as the stimulator cell. The induced CTLs, i.e., CTL lines and CTL clones, were used as the responder cell. The IFN-gamma ELISPOT assay and IFN-gamma ELISA were performed according to the manufacturer's manual.

[3] = system: peptide-pulsed C1R-A11 cells; assay: IFN-gamma ELISA of CTL lines and CTL clones (HLA-A*1101); type: cell-based, human
Protocol: (§3) CTLs were propagated in culture using methods similar to those disclosed by Riddell et al. (Walter E A et al., N Engl J Med 1995, 333(16): 1038-44; Riddell S R et al., Nat Med 1996, 2(2): 216-23). The CTLs were co-cultured in a total of 25 ml AIM-V medium containing 5% AS (AIM-V/5% AS) and 40 ng/ml anti-CD3 antibody with two types of Mitomycin C-treated human B lymphoblastoid cell lines at 5×10^6 cells/flask. One day after beginning of the culturing, 120 IU/ml IL-2 was added to the culture. On days 5, 8 and 11, a fresh AIM-V/5% AS medium containing 30 IU/ml IL-2 was added to the culture (Tanaka H et al., Br J Cancer 2001, 84(1): 94-9; Umano Y et al., Br J Cancer 2001, 84(8): 1052-7; Uchida N et al., Clin Cancer Res 2004, 10(24): 8577-86; Suda T et al., Cancer Sci 2006, 97(5): 411-9; Watanabe T et al., Cancer Sci 2005, 96(8): 498-506).
Dilution of CTLs was carried out to make 0.3, 1 and 3 cells/well in 96 round-bottomed microtiter plates (Nalge Nunc International). The CTLs were co-cultured with two types of Mitomycin C-treated human B lymphoblastoid cell lines at 1×10^4 cells/well in a total of 150 micro-l/well AIM-V/5% AS medium with 30 ng/ml anti-CD3 antibody and 125 IU/ml IL-2. Ten days later, IL-2 was added to the medium at 50 micro-1/well to reach a final concentration of 125 IU/ml. […]

[4] = system: COS7 cells transfected with both full-length URLC10 and the HLA-A*1101 gene; assay: Specific CTL activity against target cells expressing URLC10 and HLA-A*1101; type: cell-based, African green monkey
Source text: A cDNA encoding the open-reading frame of a target gene or HLA-A*1101 was amplified by PCR. The PCR-amplified product was cloned into an expression vector. Either or both of the target gene-expressing vector and the HLA-A*1101-expressing vector were transfected into COS7, which is a cell line negative for the target gene and HLA, using Lipofectamine 2000 (Invitrogen) following the manufacturer's recommended protocol. Two days after transfection, the transfected cells were harvested using versene (Invitrogen), and used as the target cell for CTL activity assay (5×10^4 cells/well).
The CTL clone established against URLC10-A11-10-132 (SEQ ID NO: 13) was investigated for its ability to recognize target cells expressing URLC10 and the HLA-A*1101 molecule. COS7 cells transfected with both full-length URLC10 and the HLA-A*1101 gene (a specific model of target cells expressing URLC10 and the HLA-A*1101 gene) were prepared as the target cell. COS7 cells transfected with either full-length URLC10 or HLA-A*1101 were prepared as the control.

[5] = system: C1R-A03 cells pulsed with the respective peptide; assay: IFN-gamma ELISA of CTL lines and CTL clones (HLA-A*0301); type: cell-based, human
Protocol: as §3
Dilution of CTLs was carried out to make 1 and 10 cells/well in 96 round-bottomed microtiter plates (Nalge Nunc International). The CTLs were co-cultured with two types of Mitomycin C-treated human B lymphoblastoid cell lines at 1×10^4 cells/well in a total of 150 micro-l/well 5% AS-containing AIM-V (AIM-V/5% AS) medium with 30 ng/ml anti-CD3 antibody and 125 IU/ml IL-2. Ten days later, IL-2 was added to the medium at 50 micro-l/well to reach a final concentration of 125 IU/ml. On day 14, the CTL activity was tested, and the CTL clones were propagated using the same method as described above (Uchida N et al., Clin Cancer Res 2004, 10(24): 8577-86; Suda T et al., Cancer Sci 2006, 97(5): 411-9; Watanabe T et al., Cancer Sci 2005, 96(8): 498-506).
as §2

[6] = CTL line against peptide-pulsed versus non-pulsed target cells

| Sequence | peptide-specific CTL activity (IFN-gamma production) [1] | peptide-specific CTL activity (IFN-gamma production) [2] | also measured |
| --- | --- | --- | --- |
| ALLLVVALPR (a peptide derived from URLC10) [SEQ ID NO 12, URLC10-derived 10mer peptide, start position 63] | specific IFN-gamma production was not observed | potent IFN-gamma production |  |
| IFPRFFMVAK (a peptide derived from URLC10) [SEQ ID NO 13, URLC10-derived 10mer peptide, start position 132] | potent IFN-gamma production |  | IFN-gamma production of CTL clone ([3]; CTL clone by limiting dilution, against peptide-pulsed C1R-A11 cells): Potent IFN-gamma production; IFN-gamma production of CTL line [3, 6]: potent IFN-gamma production; CTL activity of peptide-stimulated CTL clone against control cells ([4]; COS7 cells transfected with either full-length URLC10 or HLA-A*1101): significant specific CTL activity was not detected; CTL activity of peptide-stimulated CTL clone ([4]; against COS7 cells expressing both URLC10 and HLA-A*1101): potent CTL activity |
| MPFFYLKCCK (a peptide derived from URLC10) [SEQ ID NO 22, URLC10-derived 10mer peptide, start position 166] |  | potent IFN-gamma production | IFN-gamma production of CTL clone ([5]; CTL clone by limiting dilution, against peptide-pulsed C1R-A03 cells): Potent IFN-gamma production; IFN-gamma production of CTL line [5, 6]: potent IFN-gamma production |
| RGGRGSPYR (a peptide derived from URLC10) [SEQ ID NO 9, URLC10-derived 9mer peptide, start position 18] | potent IFN-gamma production |  |  |
| RVWCHVCER (a peptide derived from URLC10) [SEQ ID NO 1, URLC10-derived 9mer peptide, start position 98] | potent IFN-gamma production | potent IFN-gamma production |  |
